{"source": "patent US20050123479A1", "about": "“Therapeutic properties of oils” (priority 2002, published 2005)", "system": "human T lymphocytes", "test": "PHA-induced lymphocyte proliferation (3H-TdR incorporation)", "format": "cell-based", "conditions": "compared with 18:1ω9, 18:0 and 18:2; preliminary studies (FIG. 24)", "protocol": "Lymphocyte proliferation was measured by a semi-automated microtechnique (12). Human mononuclear cells (2×10^5) were seeded into u-bottomed wells of a micro-titre plate (50 μl) and treated with 500 of the ethanol emu oil fraction. After 30 min incubation, […] PHA was added to stimulate the T lymphocytes. The cells were incubated for 72 h at 37° C. in an atmosphere of 5% CO2-air and high humidity. At 6 h prior to harvest, the cultures were pulsed with 1 μCi of ^3H-TdR. The cells were harvested and the amount of radioactivity incorporated measured in a liquid scintillation counter.\nMakin emu oil was subjected to solubility in ethanol. This ethanol soluble oil fraction was then tested for ability to depress proliferation of mitogen stimulated human lymphocytes. The mononuclear cells were isolated from peripheral blood and pretreated for 30 min with dilutions of the fraction and then challenged with phytohaemagglutinin (PHA). Proliferation of lymphocytes was measured after 48 hours using ^3H-TdR incorporation as a marker for DNA synthesis."}
{"smiles": "CCCCC/C=C\\C/C=C\\CCCCCCCC(=O)O", "note": "[18:2ω6, Linoleic acid (18:2ω6)]", "values": [{"measurement": "inhibition of T lymphocyte and mononuclear cell responses by fatty acids", "value": "strongly inhibitory"}]}
